US9795602B2, “Polycyclic-carbamoylpyridone compounds and their pharmaceutical use” (Gilead Sciences, Inc., priority 2014, dated 2017)
Read-outs that look alike come from different tables or passages of the source.

What was measured:
[1] = Plasma protein binding (equilibrium dialysis); type: in vitro ADME; conditions: human, plasma (sodium EDTA) versus buffer; 2 μM in plasma vs. buffer, 24 hours at 37° C.; read-out: % Free HP/Buffer
Experimental: Plasma protein binding was determined using a HTD96b equilibrium dialyzer with a plate base, stainless steel pressure plate and Teflon bock. 9 Teflon bars, labeled sequentially from A through I, were assembled with two stainless steel connecting rods. Membranes were placed between two Teflon bars, with the membrane placed approximately 2 mm below the top edge of the bar and the lower membrane edge overlapped the bottom of all wells. The membrane was soaked for about 20 minutes in water, about 20 minutes in ethanol (30/70 v/v) and rinsed with water three times to remove the ethanol. It was soaked in PBS for at least 30 minutes. Plasma in sodium EDTA (Bioreclamation or equivalent) was used. The Plasma (not pH-adjusted) was stored at −80° C. and thawed at room temperature before use. The stock solution of the compounds tested was at 200 μM in DMSO. The quench solution used was 50 nM of an internal standard in 100% ACN. To prepare a 2 μM solution of the compound tested in plasma, 5 μL of a 200 μM stock solution was added to 495 μL of blank plasma. 100 μL plasma was added with 2 μM of test compound into one side of the well. 100 μL of buffer (for plasma vs. buffer) was added into another side of the well. The 96-well plate was covered using an adhesive sealing film and incubated for 24 hours at 37° C. under slow rotation. This procedure was replicated for each compound. 50 μL of plasma sample was put into a 96 well plate, 50 μL of buffer was added. 50 μL of buffer was put into a 96 well plate. 50 μL of plasma was added. 300 μL of quench solution was added and the plate sealed and shaken for 15 minutes. The material was centrifuged for 30 minutes at 3000 RPM and ˜250 μL was transferred into a short plate. The samples were analyzed by LC/MS. The resulting data is shown in the last row of Table 3 as “% Free” which corresponds to the percentage of compound not protein bound.

[2] = system: HIV-IIIb; test: Antiviral assay in MT4 cells; type: cell-based; conditions: MT4 cells, HIV-IIIb, 5 days, read-out: EC50
Experimental: 1 mL aliquots of 2×10^6 MT4 cells are pre-infected for 1 and 3 hours respectively at 37° C. with 25 μL (MT4) or of either cell growth medium (mock-infected) or a fresh 1:250 dilution of an HIV-IIIb concentrated ABI stock (0.004 m.o.i. for MT4 cells). Infected and uninfected cells are diluted in cell growth medium and 35 μL of 2000 (for MT4) cells is added to each well of the assay plates.
(§1) Assay plates were then incubated in a 37° C. incubator. After 5 days of incubation, 25 μL of 2× concentrated CellTiter-Glo™ Reagent (catalog # G7573, Promega Biosciences, Inc., Madison, Wis.) was added to each well of the assay plate. Cell lysis was carried out by incubating at room temperature for 2-3 minutes, and then chemiluminescence was read using the Envision reader (PerkinElmer).

[3] = system: wild-type HIV-1; test: Antiviral assay in MT-2 cells, wild-type HIV-1; type: cell-based; conditions: Human immunodeficiency virus 1, 120 h; MT2 cells, wild-type HIV-1, 5 days; read-out: wt
Experimental: (§2) For the antiviral assay utilizing MT-2 cells, 50 μL of 2× test concentration of 3-fold serially diluted compound in culture medium with 10% FBS was added to each well of a 96-well plate (9 concentrations) in triplicate. MT-2 cells were infected with wild-type or mutant variants of HIV-1 for 3 hours using a volume of viral inoculum determined to produce 90% cell killing. Fifty microliters of infected cell suspension in culture medium with 10% FBS (˜1.5×10^4 cells) was then added to each well containing 50 μL of serially diluted compound. The plates with HIV-infected cultures were then incubated at 37° C. for 5 days in the presence of the tested compounds. After 5 days of incubation, 100 μL of CellTiter-Glo™ Reagent (catalog # G7571, Promega Biosciences, Inc., Madison, Wis.) was added to each well. Cell lysis was carried out by incubating at room temperature for 10 min followed by a chemiluminescence read-out.
(§3) The chemiluminescence readout from the 10-point antiviral dose response was analyzed directly by curve fitting with equation (I) to determine the EC50.
(§4) where y=Cell Survival, M=maximum cell survival enabled by drug protection, H=baseline cell survival without drug protection, n=Hill coefficient of the antiviral dose response, m=Hill coefficient of the cytotoxicity dose response, and [I]=inhibitor concentration.
(§5) EC50 values (mean±standard deviation) were calculated from at least three independent experiments performed in triplicate. The fold-change in antiviral activity of tested compounds was calculated as a ratio of the mean EC50 for each mutant virus divided by the mean EC50 of the control WT virus.

[4] = system: HIV-1 N155H/Q148R; type: cell-based; conditions: MT2 cells; mean EC50 mutant / mean EC50 wt
Experimental: as §2, §3, §4, §5

[5] = system: HIV-1 E138K/Q148K; type: cell-based; conditions: MT2 cells; mean EC50 mutant / mean EC50 wt
Experimental: as §2, §3, §4, §5

[6] = system: HIV-1 E92Q/N155H; type: cell-based; conditions: MT2 cells; mean EC50 mutant / mean EC50 wt
Experimental: as §2, §3, §4, §5

[7] = system: HIV-1 G140S/Q148R; type: cell-based; conditions: MT2 cells; mean EC50 mutant / mean EC50 wt
Experimental: as §2, §3, §4, §5

[8] = Cytotoxicity (CC50) in MT4 cells, mock-infected; type: cell-based; conditions: human
Experimental: as §1, with “Infected and uninfected cells are diluted in cell growth medium and 35 μL of 2000 (for MT4) cells is added to each well of the assay plates. Assay” for “Assay”

[9] = molecular target: PXR (NR1I2) (Homo sapiens (Human), UniProt O75469); test: Human PXR activation assay (luciferase reporter, DPX2 cells); type: cell-based; conditions: human
Experimental: Luciferase Reporter Gene Assay.
A stably transformed tumor cell line (DPX2) was plated on 96-well microtiter plates. […]. The number of viable cells was determined and the reporter gene activity was assessed. […]

[10] = Human immunodeficiency virus 1, IIIB, MT4, 120 h
[11] = 15 uM, DPX2 cells, % Emax relative to rifampicin, adjusted for DMSO background, read-out: PXR % inh at 15 uM (adjusted)

Chain of PXR (NR1I2) (O75469 whole entry): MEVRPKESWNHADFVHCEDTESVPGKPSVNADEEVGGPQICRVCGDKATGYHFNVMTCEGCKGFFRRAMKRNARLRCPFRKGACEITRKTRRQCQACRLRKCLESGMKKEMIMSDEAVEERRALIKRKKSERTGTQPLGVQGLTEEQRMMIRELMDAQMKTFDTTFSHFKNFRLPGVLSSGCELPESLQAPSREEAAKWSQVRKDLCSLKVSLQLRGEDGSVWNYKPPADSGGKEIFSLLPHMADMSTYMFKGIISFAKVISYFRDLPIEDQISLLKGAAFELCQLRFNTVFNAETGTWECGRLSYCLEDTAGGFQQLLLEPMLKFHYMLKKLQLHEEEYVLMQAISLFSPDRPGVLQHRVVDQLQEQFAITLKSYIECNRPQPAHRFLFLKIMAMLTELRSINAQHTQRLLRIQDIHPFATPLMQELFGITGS

Row | SMILES | EC50 [2, 10] | inhibition at 24 h, 15 µM [9, 11] | CC50 at 5 days ([8]; mock-infected (uninfected)) | CC50 at 5 days ([8]; mock-infected) | further results
1 | CCN1C(=O)c2c(O)c(=O)c(C(=O)NCc3c(F)cc(F)cc3F)cn2[C@H]2CCOC[C@H]21 [Compound 33] | 2.84 nM | 12% | 31100 nM |  | fraction unbound at 24 h, 2 µM [1]: 0.056; EC50 [3]: 2.5 nM; Resistance fold shift N155H/Q148R vs. wild type [4]: 2.2 fold shift; Resistance fold shift E138K/Q148K vs. wild type [5]: 5.9 fold shift; Resistance fold shift E92Q/N155H vs. wild type [6]: 0.9 fold shift; Resistance fold shift G140S/Q148R vs. wild type [7]: 2.5 fold shift
2 | CN1C(=O)c2c(O)c(=O)c(C(=O)NCc3c(F)cc(F)cc3F)cn2[C@@H]2COC[C@@H]21 [Compound 43] | 2.88 nM | 13% | 11300 nM |  | 
3 | CN1C(=O)c2c(O)c(=O)c(C(=O)NCc3c(F)cc(F)cc3F)cn2[C@@H]2COC[C@H]21 [Compound 46] | 2.93 nM | 8% | 28200 nM |  | 
4 | CCN1C(=O)c2c(O)c(=O)c(C(=O)NCc3ccc(F)c(C)c3F)cn2[C@H]2CCOC[C@H]21 [Compound 47] | 5.7 nM | 9% | 27200 nM |  | 
5 | CN1C(=O)c2c(O)c(=O)c(C(=O)NCc3ccc(F)c(Cl)c3F)cn2[C@H]2CCOC[C@H]21 [Compound 49] | 3.32 nM | 1% | 12000 nM |  | 
6 | O=C(NCc1ccc(F)c(Cl)c1F)c1cn2c(c(O)c1=O)C(=O)N(CC(F)(F)F)[C@@H]1COCC[C@@H]12 [Compound 50] | 2.68 nM | 1% | 48400 nM |  | 
7 | CN1C(=O)c2c(O)c(=O)c(C(=O)NCc3c(F)cc(F)cc3F)cn2[C@H]2C[C@@H]3C[C@@H]3[C@H]21 [Compound 51, (6aR,6bS,7aS,8aS)-4-hydroxy-6-methyl-3,5-dioxo-N-(2,4,6-trifluorobenzyl)-5,6,6a,6b,7,7a,8,8a-octahydro-3H-cyclopropa[4,5]cyclopenta[1,2-e]pyrido[1,2-a]pyrazine-2-carboxamide] |  | 33% |  | 6710 nM | EC50 ([2]; Human immunodeficiency virus 1, 120 h): 5.28 nM
8 | CCN1C(=O)c2c(O)c(=O)c(C(=O)NCc3c(F)cc(F)cc3F)cn2[C@H]2COCC[C@H]21 [Compound 56, (4aR,11aR)-5-ethyl-7-hydroxy-6,8-dioxo-N-(2,4,6-trifluorobenzyl)-1,3,4,4a,5,6,8,11a-octahydropyrano[4,3-e]pyrido[1,2-a]pyrazine-9-carboxamide] | 3.07 nM | 10% |  | 4490 nM | 
9 | CN1C(=O)c2c(O)c(=O)c(C(=O)NCc3c(F)cc(F)cc3F)cn2[C@H]2CCCC[C@H]21 [Compound 59] | 3.42 nM | 44% |  | 11400 nM | 
10 | O=C(NCc1c(F)cc(F)cc1F)c1cn2c(c(O)c1=O)C(=O)N[C@H]1CCCC[C@@H]12 [Compound 61] | 6.3 nM |  | 31400 nM |  | inhibition at 24 h, 15 µM [9]: 0%

The remaining compounds from weak to strong by EC50 [2, 10], led by results:

Row | EC50 [2, 10] | inhibition at 24 h, 15 µM [9, 11] | SMILES | CC50 at 5 days ([8]; mock-infected (uninfected)) | CC50 at 5 days ([8]; mock-infected) | further results
11 | 7.3 nM |  | O=C(NCc1c(F)cc(F)cc1F)c1cn2c(c(O)c1=O)C(=O)N[C@@H]1CCCC[C@H]12 [Compound 62] | 24200 nM |  | inhibition at 24 h, 15 µM [9]: 0%
12 | 7.26 nM | 33% | CCN1C(=O)c2c(O)c(=O)c(C(=O)NCc3c(F)cc(F)cc3F)cn2[C@@H]2COC[C@@H]21 [Compound 45] | 36700 nM |  | 
13 | 6.04 nM | 46% | CN1C(=O)c2c(O)c(=O)c(C(=O)NCc3c(F)cc(F)cc3F)cn2[C@H]2[C@@H]3C[C@@H]3C[C@H]21 [Compound 53, (6aR,7aR,8aR,8bS)-4-hydroxy-6-methyl-3,5-dioxo-N-(2,4,6-trifluorobenzyl)-5,6,6a,7,7a,8,8a, 8b-octahydro-3H-cyclopropa[3,4]cyclopenta[1,2-e]pyrido[1,2-a]pyrazine-2-carboxamide] |  | 13300 nM | 
14 | 4.95 nM | 24% | CN1C(=O)c2c(O)c(=O)c(C(=O)NCc3ccc(F)c(Cl)c3F)cn2[C@H]2C[C@@H]3C[C@@H]3[C@H]21 [Compound 52, (6aR,6bS,7aS,8aS)-N-(3-chloro-2,4-difluorobenzyl)-4-hydroxy-6-methyl-3,5-dioxo-5,6,6a,6b,7,7a,8,8a-octahydro-3H-cyclopropa[4,5]cyclopenta[1,2-e]pyrido[1,2-a]pyrazine-2-carboxamide] |  | 2820 nM | 
15 | 4.3 nM | 1% | CN1C(=O)c2c(O)c(=O)c(C(=O)NCc3c(F)cc(F)cc3F)cn2[C@H]2CCOC[C@H]21 [Compound 48] | 32300 nM |  | 
16 | 2.92 nM | 8% | C[C@@H]1OCC[C@H]2[C@@H]1N(C)C(=O)c1c(O)c(=O)c(C(=O)NCc3c(F)cc(F)cc3F)cn12 [Compound 54, (4S,4aS,11aS)-7-hydroxy-4,5-dimethyl-6,8-dioxo-N-(2,4,6-trifluorobenzyl)-1,2,4,4a,5,6,8,11a-octahydropyrano[3,4-e]pyrido[1,2-a]pyrazine-9-carboxamide] |  | 23900 nM | 
17 | 2.29 nM | 3% | CCN1C(=O)c2c(O)c(=O)c(C(=O)NCc3ccc(F)c(Cl)c3F)cn2[C@H]2COCC[C@H]21 [Compound 57, (4aR,11aR)-N-(3-chloro-2,4-difluorobenzyl)-5-ethyl-7-hydroxy-6,8-dioxo-1,3,4,4a,5,6,8,11a-octahydropyrano[4,3-e]pyrido[1,2-a]pyrazine-9-carboxamide] |  | 6450 nM | 
18 | 1.91 nM | 2% | C[C@@H]1OCC[C@H]2[C@@H]1N(C)C(=O)c1c(O)c(=O)c(C(=O)NCc3ccc(F)c(Cl)c3F)cn12 [Compound 55, (4S,4aS,11aS)-N-(3-chloro-2,4-difluorobenzyl)-7-hydroxy-4,5-dimethyl-6,8-dioxo-1,2,4,4a,5,6,8,11a-octahydropyrano[3,4-e]pyrido[1,2-a]pyrazine-9-carboxamide] |  | 9660 nM | 
19 | 1.9 nM | 2% | O=C(NCc1c(F)cc(F)cc1F)c1cn2c(c(O)c1=O)C(=O)N[C@@H]1CCCC[C@@H]12 [Compound 60] | 13800 nM |  | 
